Source: patent US10294202B2, “Pyrrolidinones as herbicides” (FMC Corporation, priority 2013, dated 2019)
Read-outs that look alike come from different tables or passages of the source.

What was measured:
rice = test: Test C flooded paddy test; assay type: in vivo, Oryza sativa; conditions: Flood
Method in brief: (§1)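 Plants grown to the 2-leaf stage; pots flooded to 3 cm above soil and compound applied directly into the paddy water, depth kept throughout. Greenhouse 13 to 15 days, then visual rating vs untreated controls on 0–100 scale (0 no effect, 100 complete control); dash means no result.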

sedge, umbrella = test: Test C flooded paddy test; assay type: in vivo, Cyperus difformis; conditions: Flood
Method in brief: as §1

morningglory = test: Test A pre-/postemergence herbicide test; assay type: in vivo, Ipomoea spp.; conditions: for pest or weed control at 1000 g/ha: Ipomoea, 240 h, 1000 g ai/ha, read-out: Plant response rating, Morningglory
Method in brief: (§2)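 Formulated compound (non-phytotoxic solvent, surfactant) sprayed pre- onto soil of seeded loam/sand pots or post- onto seedlings at 1–2 leaves; ~10 d greenhouse; 0–100 visual control rating versus untreated.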

barnyardgrass = test: Test C flooded paddy test; assay type: in vivo, Echinochloa crus-galli; conditions: Flood
Method in brief: as §1

velvetleaf = test: Test A pre-/postemergence herbicide test; assay type: in vivo, Abutilon theophrasti; conditions: for pest or weed control at 1000 g/ha: Abutilon theophrasti, 240 h, 1000 g ai/ha, read-out: Plant response rating, Velvetleaf
Method in brief: as §2

crabgrass, large = test: Test A pre-/postemergence herbicide test; assay type: in vivo, Digitaria sanguinalis; conditions: for pest or weed control at 1000 g/ha: Digitaria sanguinalis, 240 h, 1000 g ai/ha, read-out: Plant response rating, Crabgrass, Large
Method in brief: as §2

ducksalad = test: Test C flooded paddy test; assay type: in vivo, Heteranthera limosa; conditions: Flood
Method in brief: as §1

chickweed = test: Test C postemergence herbicide test; assay type: in vivo, Stellaria media
Method in brief: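 Greenhouse pot plants at 2 to 18 cm height (1- to 4-leaf stage) received a postemergence application of formulated test chemical. Visual ratings against untreated controls were made after 13 to 15 days, on a 0 (no effect) to 100 (complete control) scale.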

[1] = 125 g ai/ha, scale of 0 to 100 where 0 is no effect and 100 is complete control, 13 to 15 days
[2] = Postemergence, 125 g ai/ha, 0 to 100 scale, 0 no effect, 100 complete control
[3] = Postemergence, 500 g ai/ha, 0 to 100 scale (0 no effect, 100 complete control)
[4] = Preemergence, 125 g ai/ha, visual rating on 0 to 100 scale (0 no effect, 100 complete control)
[5] = preemergence, 500 g ai/ha, 0 to 100 scale
[6] = 31 g ai/ha, scale 0 (no effect) to 100 (complete control)
[7] = 62 g ai/ha, scale 0 to 100 (0 no effect, 100 complete control)
[8] = 125 g ai/ha, scale 0 to 100 (0 no effect, 100 complete control)
[9] = 250 g ai/ha, scale 0 to 100 (0 no effect, 100 complete control)
[10] = 31 g ai/ha, scale of 0 to 100 where 0 is no effect and 100 is complete control, 13 to 15 days
[11] = 62 g ai/ha, scale of 0 to 100 where 0 is no effect and 100 is complete control, 13 to 15 days
[12] = post-emergence, Postemergence, 0 to 100 scale (0 no effect, 100 complete control)
[13] = pre-emergence, Preemergence, visual rating on 0 to 100 scale (0 no effect, 100 complete control), approx. 10 days

For `O=C1NCC(c2ccc(F)c(F)c2)C1C(=O)Nc1cccc(F)c1F` (racemic) [Compound 101], the “Plant response rating, Rice” value (rice; [1]) was 0, the “Plant response rating, Rice” value (rice; 250 g ai/ha, scale 0 to 100) was 0 and the “Plant response rating, Rice” value (rice; 500 g ai/ha, scale 0 to 100) was 0. For the same molecule, the “Plant response rating, Rice” value (rice; 1000 g ai/ha, scale 0 to 100) was 10, the “Plant response rating, Sedge, Umbrella” value (sedge, umbrella; [1]) was 0 and the “Plant response rating, Sedge, Umbrella” value (sedge, umbrella; 250 g ai/ha, scale 0 to 100) was 0. The “Plant response rating, Sedge, Umbrella” value (sedge, umbrella; 500 g ai/ha, scale 0 to 100) was 0, the “Plant response rating, Sedge, Umbrella” value (sedge, umbrella; 1000 g ai/ha, scale 0 to 100) was 0 and the “Plant response rating, Morningglory” value (morningglory; [2]) was 30. The “Plant response rating, Morningglory” value (morningglory; [3]) was 60, the “Morningglory plant response rating” value (morningglory; [4]) was 0 and the “Plant response rating, Morningglory” value (morningglory; [5]) was 50. For the same molecule, the “Plant response rating, Barnyardgrass” value (barnyardgrass; [1]) was 20, the “Plant response rating, Barnyardgrass” value (barnyardgrass; 250 g ai/ha, scale 0 to 100) was 55 and the “Plant response rating, Barnyardgrass” value (barnyardgrass; 500 g ai/ha, scale 0 to 100) was 60. For the same molecule, the “Plant response rating, Barnyardgrass” value (barnyardgrass; 1000 g ai/ha, scale 0 to 100) was 75, the “Plant response rating, Velvetleaf” value (velvetleaf; [2]) was 50 and the “Plant response rating, Velvetleaf” value (velvetleaf; [3]) was 70. For the same molecule, the “Velvetleaf plant response rating” value (velvetleaf; [4]) was 30, the “Plant response rating, Velvetleaf” value (velvetleaf; [5]) was 40 and the “Plant response rating, Crabgrass, Large” value (crabgrass, large; [2]) was 80. For the same molecule, the “Plant response rating, Crabgrass, Large” value (crabgrass, large; [3]) was 80, the “Crabgrass, Large plant response rating” value (crabgrass, large; [4]) was 90 and the “Plant response rating, Crabgrass, Large” value (crabgrass, large; [5]) was 100. For the same molecule, the “Plant response rating, Ducksalad” value (ducksalad; [1]) was 90, the “Plant response rating, Ducksalad” value (ducksalad; 250 g ai/ha, scale 0 to 100) was 95 and the “Plant response rating, Ducksalad” value (ducksalad; 500 g ai/ha, scale 0 to 100) was 100. The “Plant response rating, Ducksalad” value (ducksalad; 1000 g ai/ha, scale 0 to 100) was 100, the “Plant response rating, Chickweed” value (chickweed; [6]) was 35 and the “Plant response rating, Chickweed” value (chickweed; [7]) was 60. The “Plant response rating, Chickweed” value (chickweed; [8]) was 70 and the “Plant response rating, Chickweed” value (chickweed; [9]) was 80.
`O=C1NCC(c2ccc(F)c(F)c2)C1C(=O)Nc1cccc(F)c1F` (stereo not shown) [Compound 17, N-(2,3-difluorophenyl)-4-(3,4-difluorophenyl)-2-oxo-3-pyrrolidinecarboxamide] was tested, and the “Plant response rating, Rice” value (rice; [10]) was 0, the “Plant response rating, Rice” value (rice; [11]) was 0 and the “Plant response rating, Rice” value (rice; [1]) was 0. The “Plant response rating, Rice” value (rice; 250 g ai/ha, scale 0 to 100) was 0, the “Plant response rating, Sedge, Umbrella” value (sedge, umbrella; [10]) was 0 and the “Plant response rating, Sedge, Umbrella” value (sedge, umbrella; [11]) was 0. For the same molecule, the “Plant response rating, Sedge, Umbrella” value (sedge, umbrella; [1]) was 0, the “Plant response rating, Sedge, Umbrella” value (sedge, umbrella; 250 g ai/ha, scale 0 to 100) was 40 and the pest or weed control at 1000 g/ha (morningglory; [12]) was 0%. For the same molecule, the pest or weed control at 1000 g/ha (morningglory; [13]) was 30%, the “Plant response rating, Barnyardgrass” value (barnyardgrass; [10]) was 0 and the “Plant response rating, Barnyardgrass” value (barnyardgrass; [11]) was 0. For the same molecule, the “Plant response rating, Barnyardgrass” value (barnyardgrass; [1]) was 20, the “Plant response rating, Barnyardgrass” value (barnyardgrass; 250 g ai/ha, scale 0 to 100) was 25 and the pest or weed control at 1000 g/ha (velvetleaf; [12]) was 50%. It also gave a pest or weed control at 1000 g/ha (velvetleaf; [13]) of 40%, a pest or weed control at 1000 g/ha (crabgrass, large; [12]) of 90% and a pest or weed control at 1000 g/ha (crabgrass, large; [13]) of 90%. For the same molecule, the “Plant response rating, Ducksalad” value (ducksalad; [10]) was 40, the “Plant response rating, Ducksalad” value (ducksalad; [11]) was 80 and the “Plant response rating, Ducksalad” value (ducksalad; [1]) was 100. The “Plant response rating, Ducksalad” value (ducksalad; 250 g ai/ha, scale 0 to 100) was 100, the “Plant response rating, Chickweed” value (chickweed; [6]) was 0 and the “Plant response rating, Chickweed” value (chickweed; [7]) was 0. The “Plant response rating, Chickweed” value (chickweed; [8]) was 0 and the “Plant response rating, Chickweed” value (chickweed; [9]) was 10.
